Results: US5441941A, “1,2-dihydroellipticines with activity against CNS specific cancer” (The United States of America as represented by the …, priority 1993, dated 1995)

Experiments:
[1] = tested on: RPMI-8226; assay: cells; details: Homo sapiens
[2] = tested on: LXFL 529; assay: cells; details: Homo sapiens
[3] = tested on: DMS 114; assay: cells; details: Homo sapiens
[4] = tested on: DLD-1; assay: cells; details: Homo sapiens
[5] = tested on: HL-60 (TB); assay: NCI in vitro screen, SRB percent growth, Leukemia
[6] = tested on: K-562; assay: NCI in vitro screen, SRB percent growth, Leukemia
[7] = tested on: MALME-3M; assay: NCI in vitro screen, SRB percent growth, Melanoma
[8] = tested on: M19-MEL; assay: NCI in vitro screen, SRB percent growth, Melanoma
[9] = tested on: SF-268; assay: NCI in vitro screen, SRB percent growth, CNS Cancer
[10] = tested on: SF-295; assay: as above
[11] = tested on: U251; assay: as above
[12] = tested on: HCT-116; assay: NCI in vitro screen, SRB percent growth, Colon Cancer
[13] = tested on: HT29; assay: as above
[14] = tested on: TK-10; assay: NCI in vitro screen, SRB percent growth, Renal Cancer
[15] = tested on: SK-OV-3; assay: NCI in vitro screen, SRB percent growth, Ovarian Cancer
[16] = tested on: CNS cancer cell lines; assay: NCI in vitro screen, overall result on CNS cancer cell lines; details: Tables I and II
[17] = tested on: A549/ATCC; assay: NCI in vitro screen, SRB percent growth, Non-Small Cell Lung Cancer
[18] = RPMI-8226, read-out: Percent Growth
[19] = LXFL 529, read-out: Percent Growth
[20] = DLD-1, read-out: Percent Growth
[21] = Log10 Concentration -4.0, 100 µM
[22] = Log10 Concentration -7.0, 0.1 µM

SMILES: COc1ccc2[nH]c3c(C)c4c(c(C)c3c2c1)CN(C)C=C4 [Formula VII]
- GI50 ([1]; RPMI-8226): 6.31 µM
- CC50 ([1]; RPMI-8226, read-out: LC-50): > 100 µM
- activity at 0.01 µM [1, 18]: 104%
- activity at 0.1 µM [1, 18]: 101%
- activity at 1 µM [1, 18]: 99%
- activity at 10 µM [1, 18]: 38%
- activity at 100 µM [1, 18]: -38%
- IC (TGI) ([1]; RPMI-8226, read-out: TGI): 31.5 µM
- GI50 ([2]; LXFL 529): 129 nM
- CC50 ([2]; LXFL 529, read-out: LC-50): 29.1 µM
- activity at 0.01 µM [2, 19]: 66%
- activity at 0.1 µM [2, 19]: 54%
- activity at 1 µM [2, 19]: 14%
- activity at 10 µM [2, 19]: -38%
- activity at 100 µM [2, 19]: -64%
- IC (TGI) ([2]; LXFL 529, read-out: TGI): 1.88 µM
- GI50 ([3]; DMS-114): 183 nM
- IC (TGI) ([3]; DMS-114, read-out: TGI): 1.7 µM
- GI50 ([4]; DLD-1): 3.23 µM
- CC50 ([4]; DLD-1, read-out: LC-50): > 100 µM
- activity at 0.01 µM [4, 20]: 103%
- activity at 0.1 µM [4, 20]: 99%
- activity at 1 µM [4, 20]: 75%
- activity at 10 µM [4, 20]: 26%
- activity at 100 µM [4, 20]: -15%
- IC (TGI) ([4]; DLD-1, read-out: TGI): 42.3 µM
- Percent Growth [5, 21]: -43%
- Percent Growth ([5]; Log10 Concentration -5.0): 93%
- Percent Growth ([5]; Log10 Concentration -6.0, 1 µM): 121%
- Percent Growth [5, 22]: 123%
- Percent Growth ([5]; Log10 Concentration -8.0): 118%
- TGI ([5]; PG=0): 48.5 µM
- GI50 ([5]; PG=+50): 20.8 µM
- CC50 ([5]; read-out: LC-50, PG=-50): > 10 mM
- Percent Growth [6, 21]: -24%
- Percent Growth ([6]; Log10 Concentration -5.0): 11%
- Percent Growth ([6]; Log10 Concentration -6.0, 1 µM): 75%
- Percent Growth [6, 22]: 84%
- TGI ([6]; PG=0): 20.4 µM
- GI50 ([6]; PG=+50): 2480 nM
- CC50 ([6]; read-out: LC-50, PG=-50): > 100 µM
- Percent Growth ([7]; Log10 Concentration -5.0): -31%
- Percent Growth ([7]; Log10 Concentration -6.0, 1 µM): 55%
- Percent Growth [7, 22]: 110%
- Percent Growth ([7]; Log10 Concentration -8.0): 112%
- TGI ([7]; PG=0): 4.37 µM
- GI50 ([7]; PG=+50): 1410 nM
- CC50 ([7]; read-out: LC-50, PG=-50): > 100 µM
- Percent Growth [8, 21]: -62%
- Percent Growth ([8]; Log10 Concentration -5.0): -36%
- Percent Growth ([8]; Log10 Concentration -6.0, 1 µM): 48%
- Percent Growth [8, 22]: 95%
- Percent Growth ([8]; Log10 Concentration -8.0): 117%
- TGI ([8]; PG=0): 3.7 µM
- GI50 ([8]; PG=+50): 899 nM
- CC50 ([8]; read-out: LC-50, PG=-50): 34.7 µM
- Percent Growth [9, 21]: -55%
- Percent Growth ([9]; Log10 Concentration -5.0): -45%
- Percent Growth ([9]; Log10 Concentration -6.0, 1 µM): 2%
- Percent Growth [9, 22]: 76%
- Percent Growth ([9]; Log10 Concentration -8.0): 91%
- TGI ([9]; PG=0): 1.1 µM
- GI50 ([9]; PG=+50): 223 nM
- CC50 ([9]; read-out: LC-50, PG=-50): 35 µM
- Percent Growth [10, 21]: -51%
- Percent Growth ([10]; Log10 Concentration -5.0): -30%
- Percent Growth ([10]; Log10 Concentration -6.0, 1 µM): 11%
- Percent Growth [10, 22]: 65%
- Percent Growth ([10]; Log10 Concentration -8.0): 88%
- TGI ([10]; PG=0): 1.89 µM
- GI50 ([10]; PG=+50): 191 nM
- CC50 ([10]; read-out: LC-50, PG=-50): 89.5 µM
- Percent Growth [11, 21]: -47%
- Percent Growth ([11]; Log10 Concentration -5.0): -45%
- Percent Growth ([11]; Log10 Concentration -6.0, 1 µM): 3%
- Percent Growth [11, 22]: 87%
- TGI ([11]; PG=0): 1.18 µM
- GI50 ([11]; PG=+50): 276 nM
- CC50 ([11]; read-out: LC-50, PG=-50): > 100 µM
- Percent Growth [12, 21]: -28%
- Percent Growth ([12]; Log10 Concentration -5.0): 29%
- Percent Growth ([12]; Log10 Concentration -6.0, 1 µM): 80%
- Percent Growth [12, 22]: 101%
- Percent Growth ([12]; Log10 Concentration -8.0): 106%
- TGI ([12]; PG=0): 32.2 µM
- GI50 ([12]; PG=+50): 3.88 µM
- CC50 ([12]; read-out: LC-50, PG=-50): > 100 µM
- Percent Growth [13, 21]: -73%
- Percent Growth ([13]; Log10 Concentration -5.0): 24%
- Percent Growth ([13]; Log10 Concentration -6.0, 1 µM): 88%
- Percent Growth [13, 22]: 112%
- Percent Growth ([13]; Log10 Concentration -8.0): 97%
- TGI ([13]; PG=0): 17.8 µM
- GI50 ([13]; PG=+50): 3.92 µM
- CC50 ([13]; read-out: LC-50, PG=-50): 58 µM
- Percent Growth [14, 21]: -6%
- Percent Growth ([14]; Log10 Concentration -5.0): 64%
- Percent Growth ([14]; Log10 Concentration -6.0, 1 µM): 114%
- Percent Growth [14, 22]: 127%
- Percent Growth ([14]; Log10 Concentration -8.0): 120%
- TGI ([14]; PG=0): 82.7 µM
- GI50 ([14]; PG=+50): 15.9 µM
- CC50 ([14]; read-out: LC-50, PG=-50): > 100 µM
- Percent Growth [15, 21]: -23%
- Percent Growth ([15]; Log10 Concentration -5.0): 148%
- Percent Growth ([15]; Log10 Concentration -6.0, 1 µM): 167%
- Percent Growth [15, 22]: 159%
- Percent Growth ([15]; Log10 Concentration -8.0): 192%
- TGI ([15]; PG=0): 73.4 µM
- GI50 ([15]; PG=+50): 73.4 µM
- CC50 ([15]; read-out: LC-50, PG=-50): > 100 µM
- effect against CNS cancer cell lines [16]: particularly effective against CNS cancer cell lines
- Percent Growth [17, 21]: -26%
- Percent Growth ([17]; Log10 Concentration -5.0): 10%
- Percent Growth ([17]; Log10 Concentration -6.0, 1 µM): 51%
- Percent Growth [17, 22]: 87%
- Percent Growth ([17]; Log10 Concentration -8.0): 102%
- TGI ([17]; PG=0): 19.2 µM
- GI50 ([17]; PG=+50): 1050 nM
- CC50 ([17]; read-out: LC-50, PG=-50): > 100 µM
